# Assay results published in patent publication US20210379077A1, “TOPOISOMERASE II CATALYTIC INHIBITOR COMPOUND THERAPEUTICS FOR CANCER TREATMENT, METHODS AND USES” (The University of British Columbia, priority 2018, published 2021).
# “Also recorded” adds a separate entry of the source.
# What was measured:
# Hela cells [1] = experiment: LDH cytotoxicity assay; format: cell-based; conditions: 0-20 μM, 48 hours, listed as Top60
# Procedure: Cytotoxicity was evaluated by measuring LDH levels from cell culture media; (b) K562 cells were treated with either vehicle or 10-20 μM of Top60, Etoposide and ICRF187 for 4 hours. Whole cell lyses were collected to measure γH2AX levels with vinculin as the loading control; (c) K562 cells were treated with 0, 1, 5, 10, 15 and 20 μM of Top60, 20 μM Etoposide or 20 uM ICRF187 for 48 hours. Cell proliferation rates were determined by MTS assays; and (d) K562 cells were treated with 20 μM of Top60, Etoposide or ICRF187 for 0, 24, 48 and 72 hours. Cell proliferation rates were measured by MTS assays. All results were collected from three independent experiments.
# Cytotoxicity assay—Cytotoxicity assays were performed using the commercial kit from Pierce (CAT #8078). Briefly, culture media was collected and used to measure lactate dehydrogenase (LDH) levels by a colorimetric method following manufacture's protocol.
# Topoisomerase II = biological target: T1, Topoisomerase II (Homo sapiens, UniProt P11388); experiment: Topoisomerase II inhibition screening (supercoiled plasmid relaxation, then kDNA decatenation); format: biochemical; parameters: key to TOP2 Inhib.: Y is an indication that activity was found
# T1 construct: purchased TopoGENE (TopoGEN) TG2000H / kit TG1001
# T1 sequence (P11388 whole entry): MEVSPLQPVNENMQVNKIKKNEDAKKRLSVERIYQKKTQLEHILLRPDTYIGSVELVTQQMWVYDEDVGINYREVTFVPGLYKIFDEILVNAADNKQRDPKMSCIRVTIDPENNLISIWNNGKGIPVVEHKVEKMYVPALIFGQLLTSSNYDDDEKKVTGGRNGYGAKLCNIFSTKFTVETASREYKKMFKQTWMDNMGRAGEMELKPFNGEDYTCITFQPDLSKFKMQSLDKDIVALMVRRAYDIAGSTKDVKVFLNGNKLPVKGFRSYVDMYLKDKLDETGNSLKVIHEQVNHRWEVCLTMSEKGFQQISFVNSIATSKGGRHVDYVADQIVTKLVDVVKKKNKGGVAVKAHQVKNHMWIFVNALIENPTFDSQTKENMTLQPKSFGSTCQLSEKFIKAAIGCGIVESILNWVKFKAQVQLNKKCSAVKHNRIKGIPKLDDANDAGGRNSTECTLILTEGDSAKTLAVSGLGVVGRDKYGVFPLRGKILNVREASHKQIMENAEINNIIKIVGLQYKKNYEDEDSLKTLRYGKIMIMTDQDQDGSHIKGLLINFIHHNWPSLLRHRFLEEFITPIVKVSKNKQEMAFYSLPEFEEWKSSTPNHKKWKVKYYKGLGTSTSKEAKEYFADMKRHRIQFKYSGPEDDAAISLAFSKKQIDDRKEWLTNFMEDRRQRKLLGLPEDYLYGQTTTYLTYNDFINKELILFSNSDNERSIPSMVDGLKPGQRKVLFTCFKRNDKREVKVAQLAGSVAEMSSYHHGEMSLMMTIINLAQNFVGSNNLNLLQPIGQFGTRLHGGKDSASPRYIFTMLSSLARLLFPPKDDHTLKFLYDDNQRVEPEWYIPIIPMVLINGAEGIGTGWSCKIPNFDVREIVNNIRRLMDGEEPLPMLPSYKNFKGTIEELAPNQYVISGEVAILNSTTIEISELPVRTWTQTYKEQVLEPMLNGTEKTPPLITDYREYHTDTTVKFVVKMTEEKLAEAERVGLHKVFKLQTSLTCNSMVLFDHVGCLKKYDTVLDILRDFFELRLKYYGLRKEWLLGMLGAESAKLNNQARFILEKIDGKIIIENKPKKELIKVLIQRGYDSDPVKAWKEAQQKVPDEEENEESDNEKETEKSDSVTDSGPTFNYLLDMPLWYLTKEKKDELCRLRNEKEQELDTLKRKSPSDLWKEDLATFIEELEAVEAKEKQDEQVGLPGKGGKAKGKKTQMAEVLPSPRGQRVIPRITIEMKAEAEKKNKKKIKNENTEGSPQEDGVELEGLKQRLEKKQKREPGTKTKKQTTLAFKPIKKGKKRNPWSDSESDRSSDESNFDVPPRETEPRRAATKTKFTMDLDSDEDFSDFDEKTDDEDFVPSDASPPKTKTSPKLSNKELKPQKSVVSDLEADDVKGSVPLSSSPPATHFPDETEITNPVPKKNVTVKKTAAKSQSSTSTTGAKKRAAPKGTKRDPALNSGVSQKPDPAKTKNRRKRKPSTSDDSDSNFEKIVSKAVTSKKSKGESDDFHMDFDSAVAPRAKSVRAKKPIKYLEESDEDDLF
# Procedure: In vitro Topo II activity assays—K-DNA decatenation assays were performed using the human Topo II assay kit (TG1001, TopoGENE™) with Etoposide and ICRF193 as poison and catalytic inhibitors respectively. DNA relaxation assays were performed by incubating the supercoiled pHOT™ plasmid with human Topo IIα (TG2000H™, TopoGENE™) at 37 degrees for one hour. Reactions were stopped by adding 10% SDS, EDTA and proteinase K. Plasmid DNAs were separated on DNA agarose gel and stained with ethidium bromide for visualization.
# Medium Throughput Screening Assays A supercoiled plasmid relaxation assay was used as a first, course filter to determine candidate small molecules. Small molecule candidates that were sufficiently active in the first round screening were then subject to the kDNA decatenation assay.
# Second Round Screening With the discovered active compounds 19 and 23, a new screen was initiated to look for similar molecules. For this, the shape similarity screening program ROCS™^10 was used The compounds chosen for the ROCS™ search was based on the docking conformation of Compound 23. The ZINC-15 library filtered down to 6 million molecules described previously was used for this screening. The top 62 molecules were hand-picked based on their ROCS™ similarity as well as their docking scores. These molecules were ordered and tested with the same medium throughput assays previously described. A large enrichment in the proportion of active molecules was observed, of close to 10-fold relative to the first round, validating the virtual screening pipeline.
# Topo IIα = Topo IIα (Homo sapiens, UniProt P11388); experiment: Chromatin fraction assay; format: cell-based; parameters: endogenous in cells; host or cells: K562; conditions: K562 cells, 0, 1 and 10 μM, 24 hours
# Chain of Topo IIα (P11388 whole entry): as above
# Procedure: Whole cell lyses were collected and used to measure protein levels of TOP2α, TOP2β with β-Actin as a loading control; (b) K562 cells were treated with 0, 1, and 10 μM of Top60 for 24 hours. Protein lyses were collected from soluble nuclear extract, chromatin fraction or whole cell lysate. TOP2α and TOP2β protein levels were determined by immunoblotting with Lamin A/C, Histone H3 and β-Actin as loading controls; and (c) Etoposide-resistant K562 cell line was established by treating cells with 0.5 μM of Etoposide for 6 months. TOP2α, TOP2β, and β-actin protein levels were determined by immunoblotting. Etoposide-resistant K562 cells were treated with 0, 1, 10, 15 and 20 μM of Top60, Etoposide or ICRF187 for 48 hours. Cell proliferation rates were determined by MTS assays.
# Thermal shift and chromatin fraction assays—In the thermal shift assays, cells were treated with vehicle or compound #60 (Top60) for 1 hour, split into equal aliquots to be heated at 37 to 46 degrees in a PCR machine. Protein lyses were collected to perform immunoblotting assays with Topo II antibodies. In the chromatin fraction assays, cells were treated with vehicle or compound #60 (Top60). Both soluble and chromatin associated proteins were fractioned following the protocol described by Wysocka J et al.^18. Protein lyses were collected to perform immunoblotting assays with Topo II antibodies. […]
# Hela cells [2] = experiment: Confocal microscopy of nuclei size; format: cell-based; conditions: 20 μM, 48 hours, DAPI staining
# Procedure: BrdU incorporation rates were determined by Millipore™ BrdU incorporation kit (CAT #2750). (b-c) Hela cells were treated with vehicle or 20 μM of Top60 for 48 hours. Cells were then stained with APC-BrdU and 7-AAD for 4 hours, and subjected to FACS assays to determine cell populations at Sub G0/G1, G0/G1, S, and G2/M phases. Results were collected from three independent experiments, (d-e) Hela cells were treated with either vehicle or 20 μM T60 for 48 hours. Cells were fixed and co-stained with DAPI and phalloidin, and examined by confocal microscopy. Fifty cells were chosen from five high power fields to analyze nuclei sizes by the Image J software. Representative bright field microscopic images were also shown. Scale bar=50 μm.
# Confocal microscopy—Cells were fixed with 4% paraformaldehyde, treated in 0.25% Triton X-100 for 15 mins, incubated with F-actin conjugated to Phalloidin-iFluor 488™ (Abeam™; Cambridge, UK), and mounted with DAPI staining mount (Vector Labs™; Burlingame, Calif., USA). Cells were then imaged by confocal microscopy at 63× magnification (Zeiss LSM 780™; Carl Zeiss AG™; Oberkochen, Germany).
compound,measurement,setting,value
O=C(Nc1ccc(Nc2ccccc2)cc1)c1ccc[nH]c1=S [Compound 60],cytotoxicity (LDH levels in culture media),Hela cells [1],Low cytotoxic affect; also recorded: low cytotoxicity
same,TOP2 Inhib.,Topoisomerase II,Y
same,inhibitory activity against Topo II compared with ICRF-193,Topoisomerase II,more potent inhibitory activity against Topo II than ICRF-193
same,IC50 of Topo II inhibition,Topoisomerase II; assay not specified,nanomolar
same,relative activity among compounds tested in the screening round,Topoisomerase II; medium throughput relaxation and kDNA decatenation assays,most active of the group
same,Topoisomerase II inhibitory activity,Topoisomerase II; result in words,inhibits TOP2 activity
same,chromatin binding of Topo IIα,Topo IIα,became unbound from chromatin
same,nuclei size,Hela cells [2],enlarged nuclei
